Results on 8 compounds are retold here after patent US20250250300A1, “COMPOSITIONS AND METHODS FOR TREATING PSEUDOMYXOMA PERITONEI” (UNIVERSITY OF SOUTH CAROLINA, priority 2024, published 2025).

A word on the IC50: it is the concentration that gives 50% inhibition. Read a high IC50 as a need for much substance.

*1 amine or outer side, *2 acyl side, *3 side chain or, on linkers, in order; H or OH if unused. Where a SMILES comes first, the peptide text is derived from it. Bridges are numbered along the chain shown (N, C = ends). [ ]: non-standard residue; d: D form. The star is where a group is joined. X2 = NC(=O)C[C@@H](O)[C@@H](N[*:1])C(=O)[*:2]; d(aThr) = C[C@@H](O)[C@@H](N)C(=O)O; NMeF = CN[C@@H](Cc1ccccc1)C(=O)O; X1 = CC[C@@H](C)CCCCCCCCCCC(=O)*; dNMeN = CN[C@H](CC(N)=O)C(=O)O

For assay [1] the following is noted: reported; cited from earlier work.
The subject of assay [2] is PMP501-1 cells. Nature of the assay: seahorse mitochondrial stress assay, PMP501-1. The class given is cell-based, human. The following applies: PMP501-1, normalized per 1,000 cells. Here is the method:
FIG. 3B depicts seahorse mitochondrial stress assay of 2 and 5-FU (positive control) toward PMP501-1cell lines, from which the normalized oxygen consumption rate (OCR) and normalized extracellular acidification rate (ECAR) were measured. The OCR was measured at baseline and in response to sequential injections of oligomycin (O), carbonyl cyanide-p-trifluoromethoxyphenyl-hydrazon (FCCP), and rotenone with antimycin (RA).
(§1) As tumor cells requires larger energy supply that relies on mitochondrial respiration and glycolysis, we sought to explore the effect of myxomapeptins on PMP cell energy metabolism using seahorse mitochondrial stress assay. The normalized oxygen consumption rate (OCR; proportional to mitochondrial respiration) and normalized extracellular acidification rate (ECAR; proportional to glycolysis) were measured for PMP501-1 cells and FHC in the presence of 2, 5-fluorouracil (5-FU) or vehicle.

The subject of assay [3] is FHC cells. Nature of the assay: seahorse mitochondrial stress assay, FHC. The following applies: for mitochondrial respiration (normalized OCR and ECAR): normalized per 1,000 cells. Type of assay: cell-based, human. As for the experimental part:
FIG. 3C depicts seahorse mitochondrial stress assay of 2 and 5-FU (positive control) toward FHC cell lines, from which the normalized oxygen consumption rate (OCR) and normalized extracellular acidification rate (ECAR) were measured. The OCR was measured at baseline and in response to sequential injections of oligomycin (O), carbonyl cyanide-p-trifluoromethoxyphenyl-hydrazon (FCCP), and rotenone with antimycin (RA).
as §1
(§2) Next, the modulatory effect of 3 and 4 on PMP, HT-29 and FHC cells was evaluated. […] Subsequently, the effect of 3 and 4 on the mitochondrial respiration of ABX023-1 cells was measure in the seahorse mitochondrial stress assay.

The test system of assay [4] is PMP501-1 cells. Nature of the assay: cell viability assay (crystal violet), PMP501-1. The following applies: for stimulation of proliferation: 33.3 μM (for 3). The class given is cell-based, human. As for the experimental part:
(§3) To evaluate whether myxomapeptin is the major contributor to the PMP inhibition, 2 were assayed against two PMP cell lines (PMP501-1 and ABX023-1), human colorectal adenocarcinoma cells (HT-29), and human fetal intestinal epithelial cells (FHC) using crystal violet cell viability assay.
as §2

For assay [5], the system named is ABX023-1 cells. As to the kind of experiment: crystal violet cell viability assay, ABX023-1. Type of assay: cell-based, human. The following applies: for stimulation of proliferation: 33.3 μM (for 3). Here is the method: as §3, §2
Assay [6] concerns human colorectal adenocarcinoma cells (HT-29). Nature of the assay: cell viability assay (crystal violet), HT-29. Type of assay: cell-based. The following applies: for effect on proliferation: 33.3 μM (for 3). Here is the method:
as §3, §2

Assay [7] relates to human fetal intestinal epithelial cells (FHC). Nature of the assay: crystal violet cell viability assay, FHC. Type of assay: cell-based. The following applies: for effect on proliferation: 33.3 μM (for 3). As for the experimental part:
as §3, §2

The test system of assay [8] is PMP501-1 cells. As to the kind of experiment: cell uptake, LCMS of cell lysate, PMP501-1. The following applies: for ratio of compound in cell lysis versus control extracts: PMP501-1, compound fed, 5 days of incubation. Type of assay: cell-based, human. An excerpt:
(§4) Due to the inability of entering target cells passively, most cyclic lipopeptides are reported to perform biological functions by disrupting cell wall biosynthesis or the integrity of cell membranes. Given that myxomapeptins influence mitochondrial respiration and glycolysis, which occur in the cytoplasm, without wishing to be bound by theory, it was hypothesized that myxomapeptins are likely able to enter PMP cells. To this end, 2 was fed into the cultures of PMP501-1, ABX023-1, HT-29 and FHC cells with normalized cell density. After 5 days of incubation and a thorough wash, the cells were lysed and extracted by butanol for LCMS analysis. By calculating the ratio of 2 in cell lysis versus control extracts, 18.9% and 26.7% of 2 were found in the lysates of PMP501-1 and ABX023-1, whereas only 6.1% and 4.1% were detected from the lysates of HT-29 and FHC, respectively (FIG. 3A).
(§5) Next, to study the percentage of myxomapeptins contributed by the intracellular PMP498-3 in light of the presence of PMP498-3 bacteria inside the PMP cells, the bacteria was co-cultured with the cell lines tested above.

Assay [9] deals with ABX023-1 cells. As to the kind of experiment: cell uptake, LCMS of cell lysate, ABX023-1. The class given is cell-based, human. The following applies: for ratio of compound in cell lysis versus control extracts: ABX023-1, compound fed, 5 days of incubation.
Description: as §4, §5

Assay [10] relates to HT-29 cells. As to the kind of experiment: cell uptake, LCMS of cell lysate, HT-29. The class given is cell-based, human. The following applies: HT-29, compound fed, 5 days of incubation.
Description: as §4

Assay [11] concerns FHC cells. As to the kind of experiment: cell uptake, LCMS of cell lysate, FHC. Type of assay: cell-based, human. The following applies: compound fed, 5 days of incubation.
Description: as §4

A short description of assay [12]: antimicrobial activity test. The class given is cell-based. The following applies: 64 μg/mL. As for the experimental part: Next, the absolute configuration of amino acid residues in 1 and 2 were determined by advanced Marfey's analysis after acid hydrolysis. After derivatization with (L)-and (D)-1-fluoro-2-4-dinitrophenyl-5-L-alanine amide (FDAA), the acid hydrolysate of 1 and 2 together with amino acid standards were analyzed by LCMS. […] Besides, the analysis allowed assignment of non-canonical amino acids as (2S,3R)-MeDap, (2R,4S)—Y—OH-Gln and (2S,3R)-B-Me-Glu in the structures of 1 and 2. Thus, the structures inclusive of absolute configuration of 1 and 2 are unambiguously assigned (FIG. 2C), and were named myxomapeptins A and B based on the source of the producing strain. Myxomapeptins are a new class of depsi cyclic lipopeptide consisting of eight amino acid residues that features N-methylation, C-methylation and hydroxylation, and a-proton epimerization.

The subject of assay [13] is ABX023-1 cells. As to the kind of experiment: seahorse mitochondrial stress assay, ABX023-1. The following applies: 15 μM (for 3), after FCCP supplementation. Type of assay: cell-based, human. Here is the method: FIG. 4C depicts seahorse mitochondrial stress assay of 3 and 4 toward ABX023-1 cell lines, from which the normalized oxygen consumption rate (OCR) and normalized extracellular acidification rate (ECAR) were measured. The OCR was measured at baseline and in response to sequential injections of oligomycin (O), carbonyl cyanide-p-trifluoromethoxyphenyl-hydrazon (FCCP), and rotenone with antimycin (RA).
as §2

The test system of assay [14] is HT-29 cells. As to the kind of experiment: seahorse mitochondrial stress assay, HT-29. Type of assay: cell-based, human.

In the case of neopeptin, the “antibacterial and antifungal activities” value in [1] was “reported to possess antibacterial and antifungal activities”.

In the case of `O=c1[nH]cc(F)c(=O)[nH]1` [Compound 5-FU, 5-fluorouracil], the “mitochondrial respiration (normalized OCR and ECAR)” value with PMP501-1 cells [2] and in the assay with FHC cells [3] was “unselectively inhibited” throughout.

On to myxomapeptin B [Compound 2], for which the IC50 in the assay with PMP501-1 cells [4] was 23 µM; in the assay on ABX023-1 cells [5], 33.7 µM; in assay [6], over 100 µM; in assay [7] it was over 100 µM. The “mitochondrial respiration (normalized OCR and ECAR)” value is given as “strongly inhibits” in the assay on PMP501-1 cells [2] and “not observed” in the assay with FHC cells [3]. The “ratio of compound in cell lysis versus control extracts” value with PMP501-1 cells [8] turned out to be 18.9%; in the assay on ABX023-1 cells [9] it was 26.7%; in the assay on HT-29 cells [10] it was 6.1%; with FHC cells [11] it was 4.1%. In addition, the “percentage of 2 found in cell lysate” value in the assay on PMP501-1 cells [8] (PMP501-1 co-cultured with PMP498-3 bacteria) is reported as 22.5%; in the assay with ABX023-1 cells [9] (ABX023-1 co-cultured with PMP498-3 bacteria) it was 30.2%. In assay [12], the antimicrobial activity entry is reported as “no antimicrobial activity”.

As to `CC[C@@H](C)CCCCCCCCCCC(=O)N[C@H]1C(=O)N[C@@H](CC(=O)O)C(=O)N[C@H](CO)C(=O)N[C@@H](CO)C(=O)N(C)[C@H](CC(N)=O)C(=O)N(C)[C@@H](Cc2ccccc2)C(=O)N[C@H]([C@H](O)CC(N)=O)C(=O)N[C@H](CCC(=O)O)C(=O)O[C@@H]1C` [Lipopeptin A, lipopeptin A] (X1-[d(aThr)]D[dS]S[dNMeN][NMeF][X2][dE]; ester 1-C), the “antibacterial and antifungal activities” value in assay [1] is “reported to possess antibacterial and antifungal activities”.

Consider myxomapeptin A [Compound 1], for which, in assay [12], the antimicrobial activity entry is “no antimicrobial activity”.

Turning to `N[C@@H](Cc1ccc(O)cc1)C(=O)O` [Compound 4, L-tyrosine], the stimulation of proliferation result with PMP501-1 cells [4] and in the assay on ABX023-1 cells [5] was “no discernible effect” in each case. Also, the effect on proliferation result in assay [6] and in assay [7] was “no discernible effect” throughout. For the same compound, in the assay on ABX023-1 cells [13], the “increase of maximum respiratory capacity” value was “do not have any effect”.

`CCCCCCCCCC(=O)N[C@@H](Cc1c[nH]c2ccccc12)C(=O)N[C@H](CC(N)=O)C(=O)N[C@@H](CC(=O)O)C(=O)N[C@@H]1C(=O)NCC(=O)N[C@@H](CCCN)C(=O)N[C@@H](CC(=O)O)C(=O)N[C@H](C)C(=O)N[C@@H](CC(=O)O)C(=O)NCC(=O)N[C@H](CO)C(=O)N[C@@H]([C@H](C)CC(=O)O)C(=O)N[C@@H](CC(=O)c2ccccc2N)C(=O)O[C@@H]1C` [daptomycin]: the “ratio of compound in cell lysis versus control extracts” value with PMP501-1 cells [8], with ABX023-1 cells [9], in the assay on HT-29 cells [10] and with FHC cells [11] was “cannot be detected” each time.

With `O=C(O)/C=C/c1ccc(O)cc1` [Compound 3, p-coumaric acid], the stimulation of proliferation in the assay with PMP501-1 cells [4] and in the assay on ABX023-1 cells [5] was about 20% each time. In addition, the effect on proliferation entry in assay [6] and in assay [7] was “no effect” each time. Also, the “stimulatory effect on oxygen consumption” value in the assay with FHC cells [3] and in the assay on HT-29 cells [14] was “no substantial stimulatory effect” throughout. In the assay with ABX023-1 cells [13], the “increase of maximum respiratory capacity” value worked out at 25%.
